Laboratory results taken from article PMC2192064 (The Journal of Experimental Medicine, 1995).
Where no end group is shown, it is not given here.

Legend:
[1] = target: T1, purified I-Au class II molecules (Mus musculus, UniProt P06344+P14438); assay: Class II-peptide-binding inhibition assay, I-Au
T1 sequence (P14438 1-227): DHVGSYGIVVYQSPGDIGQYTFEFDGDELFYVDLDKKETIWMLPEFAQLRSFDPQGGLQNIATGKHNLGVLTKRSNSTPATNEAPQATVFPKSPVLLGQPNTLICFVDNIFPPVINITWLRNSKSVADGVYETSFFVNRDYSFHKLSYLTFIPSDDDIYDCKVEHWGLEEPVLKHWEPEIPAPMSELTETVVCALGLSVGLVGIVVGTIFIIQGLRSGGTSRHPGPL
T1 sequence (P06344 28-263): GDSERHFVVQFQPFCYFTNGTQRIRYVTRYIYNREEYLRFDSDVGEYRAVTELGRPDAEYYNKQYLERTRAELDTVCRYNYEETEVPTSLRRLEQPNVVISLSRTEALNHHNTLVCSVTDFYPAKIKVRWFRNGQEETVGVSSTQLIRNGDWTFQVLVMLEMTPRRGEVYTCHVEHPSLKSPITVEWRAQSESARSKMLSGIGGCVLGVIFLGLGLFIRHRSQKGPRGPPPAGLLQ

BWF1 mice = assay: Pathogenic potential: immunization of young BWF1 mice with peptides; assay type: in vivo, mouse; settings: p34 or p84 immunization vs PBS/CFA/alum; p <0.05
[2] = system: T cell-enriched splenic cells from 12-14-wk-old female BWF1 mice; assay: Proliferation of unprimed splenic T cells in response to peptides; assay type: cell-based, mouse; settings: result in words
[3] = target: I-Ad class II molecule (mouse); assay: radioligand binding

## C[C@H](NC(=O)[C@H](C)NC(=O)[C@H](Cc1c[nH]cn1)NC(=O)[C@H](C)NC(=O)[C@H](C)NC(=O)[C@H](Cc1c[nH]cn1)NC(=O)[C@H](C)NC(=O)[C@H](C)NC(=O)[C@H](Cc1c[nH]cn1)NC(=O)[C@H](C)NC(=O)[C@H](C)NC(=O)[C@H](Cc1c[nH]cn1)NC(=O)[C@H](C)NC(=O)[C@H](C)NC(=O)[C@H](Cc1c[nH]cn1)NC(=O)[C@H](C)NC(=O)[C@@H](N)Cc1ccc(O)cc1)C(=O)O [RO IV]
[1]
  IC50: 8 nM

## MNWVKQSHGKSL [p34]
BWF1 mice
  plasma creatinine levels: increase in plasma creatinine levels
[2]
  proliferative responses in naive BWF1 T cells: elicit proliferative responses

## OVA 323-336 (from UniProt P01012 324-337) (peptide)
[3]
  IC50: 110 nM
